The values below come from patent publication US9801873B2, “Methods for treating humans having brain cancer” (priority 2008, dated 2017).

Like-named read-outs stand apart in the source and are kept apart here.

Data set [1] has as its system A2780 ovarian tumors. The settings on record: for activity in A2780 ovarian tumor model: 3 weekly intra-peritoneal administrations; for tumor growth delay (TGD): 3 weekly intravenous injections. Here is the method: Anti-tumor efficacy was evaluated based on tumor growth delay (TGD) in mice and response rate in mice and humans.
Animals were weighed and monitored twice weekly, and tumor volumes were measured until an endpoint was met (2000 mm^3 or 60 days). Anti-tumor efficacy was evaluated based on tumor growth delay and response rate or partial or complete regression (PR or CR). In a PR, the tumor volume was 50% or less of its Day 1 volume for three consecutive measurements, and equal to or greater than 14 mm^3 for one or more of these three measurements. In a CR, the tumor volume was less than 14 mm^3 for three consecutive measurements. An animal with a CR response at termination was additionally classified as tumor-free survivior (TFS). A Student's T-test was performed to calculate statistical significance (p<0.05).

The conditions of data set [2]: cited from earlier work.
The nature of data set [3]: Phase 1 trial: plasma pharmacokinetics by LC-MS/MS and population PK model (SN-38 exposure and half-life). As to conditions: plasma analyte after administration of Compound I.
Procedure: Tumor responses were evaluated according to RECIST (Response Evaluation Criteria in Solid Tumors) criteria.

With `N.N.O=C([O-])C1(C(=O)[O-])CCC1.[Pt+2]` [carboplatin], the “activity in A2780 ovarian tumor model” value in data set [1] is “inactive”.

In the case of `CCc1c2c(nc3ccc(OC(=O)N4CCC(N5CCCCC5)CC4)cc13)-c1cc3c(c(=O)n1C2)COC(=O)[C@]3(O)CC` [irinotecan], the SN-38 plasma levels in data set [2] (higher doses (2.8, 4.6 mg/m^2 per day), dosing period of 63 days) is 2 to 4 ng/mL; in data set [2] (lowest dose (1.4 mg/m^2 per day continuous iv infusion), up to 63 days) it was “around 1 ng/ml”. The “tumor growth delay (TGD)” value in data set [1] (50 mg/kg) is on record as 12 days; in data set [1] (100 mg/kg), 15 days; in data set [1] (150 mg/kg), 16 days. The tolerability in mice result in data set [1] (3 weekly intravenous doses of 50, 100, or 150 mg/kg) is given as “acute effects immediately after dosing (tremors, hypoactivity, ataxia, pilo-erection, increased stool production)”. Moreover, the “partial responses (PR)” value in data set [1] (highest dose (150 mg/kg), n=10) is recorded as “one partial response (PR)”.

On to `N.N.[Cl][Pt][Cl]` [cisplatin], for which, in data set [1], the “activity in A2780 ovarian tumor model” value was “inactive”.

Turning to `CCc1c2c(nc3ccc(O)cc13)-c1cc3c(c(=O)n1C2)COC(=O)[C@]3(O)CC` [SN-38, 7-ethyl-10-hydroxy camptothecin], in data set [3], the “T1/2 λz, In Responding Patients (range)” value lay within 14.4 to 98.3 days and the “T1/2 λz, Population Estimate in Responding Patients” value is listed as 49.1 days.
